Measured values reported in patent US9889147B2 (CELLACT PHARMA GMBH, priority 2010, dated 2018).

What was measured:
P-glycoprotein = P-glycoprotein (Homo sapiens, UniProt P08183); experiment: P-glycoprotein substrate behaviour; assay type: cell-based
topoisomerase II β = experiment: Topoisomerase II beta mRNA expression in U937 cells (PCR); assay type: cell-based; conditions: 10^4 mol/l, 24 h
Protocol: (§1) One of the controls involved the treatment of the cells with 0.05% (1 μl) DMSO. Untreated cells are also shown as a control.
(§2) After an incubation time of 24 h, expression was analysed by determining mRNA levels by real-time PCR. In the respective lanes of FIG. 2, the bands for topoisomerase II α (322 bp), topoisomerase II β (304 bp) and the GAPDH control (358 bp) are shown. In the H2O control lane, showing the results of the H2O control sample, no bands were observed.

[1] = biological target: T1, MDR-1 gene product (P-glycoprotein) (Homo sapiens, UniProt P08183); experiment: Functional MDR-1 assay with JC-1 in Kelly cells (flow cytometry); assay type: cell-based; conditions: for intracellular JC-1 signal versus DMSO control (MDR-1-mediated substrate efflux): Kelly cells, 10^−4 mol/l, 15 min
T1 construct: endogenous in cells; host or cells: Kelly
T1 sequence (P08183 whole entry): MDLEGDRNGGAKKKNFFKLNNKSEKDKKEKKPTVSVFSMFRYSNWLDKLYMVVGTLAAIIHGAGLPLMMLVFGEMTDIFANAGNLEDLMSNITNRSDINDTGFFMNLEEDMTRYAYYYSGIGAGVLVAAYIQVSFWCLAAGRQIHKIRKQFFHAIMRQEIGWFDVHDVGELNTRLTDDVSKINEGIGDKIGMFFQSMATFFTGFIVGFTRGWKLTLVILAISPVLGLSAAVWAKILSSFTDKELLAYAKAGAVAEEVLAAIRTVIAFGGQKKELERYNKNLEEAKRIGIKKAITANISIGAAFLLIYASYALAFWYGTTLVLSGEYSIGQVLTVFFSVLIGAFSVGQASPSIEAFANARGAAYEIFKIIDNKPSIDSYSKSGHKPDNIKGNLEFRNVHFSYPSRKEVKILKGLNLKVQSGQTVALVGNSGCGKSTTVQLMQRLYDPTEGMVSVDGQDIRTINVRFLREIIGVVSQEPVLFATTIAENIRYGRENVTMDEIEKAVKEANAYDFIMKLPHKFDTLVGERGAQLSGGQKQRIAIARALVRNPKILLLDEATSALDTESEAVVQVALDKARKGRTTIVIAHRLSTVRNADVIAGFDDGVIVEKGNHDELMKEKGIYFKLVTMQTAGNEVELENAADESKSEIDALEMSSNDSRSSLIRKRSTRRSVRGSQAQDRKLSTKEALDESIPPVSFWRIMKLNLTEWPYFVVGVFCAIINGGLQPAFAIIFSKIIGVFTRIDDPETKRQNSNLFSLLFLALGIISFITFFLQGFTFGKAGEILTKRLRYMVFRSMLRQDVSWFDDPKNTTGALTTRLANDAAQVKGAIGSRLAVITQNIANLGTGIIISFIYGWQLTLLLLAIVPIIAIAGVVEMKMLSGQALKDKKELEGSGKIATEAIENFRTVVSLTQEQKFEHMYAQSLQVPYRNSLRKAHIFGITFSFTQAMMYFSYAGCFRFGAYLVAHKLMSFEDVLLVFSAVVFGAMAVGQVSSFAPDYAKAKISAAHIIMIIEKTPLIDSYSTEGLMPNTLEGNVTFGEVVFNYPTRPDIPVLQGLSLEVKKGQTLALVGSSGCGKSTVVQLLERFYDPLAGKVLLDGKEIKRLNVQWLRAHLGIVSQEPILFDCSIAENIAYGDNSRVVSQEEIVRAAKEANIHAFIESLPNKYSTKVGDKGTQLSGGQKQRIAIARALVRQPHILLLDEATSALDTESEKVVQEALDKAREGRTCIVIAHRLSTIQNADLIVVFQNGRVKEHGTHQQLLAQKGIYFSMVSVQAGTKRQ
Protocol: By means of an assay using JC-1, MDR-1 activity was assessed in Kelly cells, which express MDR-1. JC-1 is a cationic staining dye which is taken up by living cells. JC-1 is recognized by the MDR-1 gene product (P-glycoprotein) and pumped to the outside of the cell (substrate efflux). Thus, MDR-1 activity is indicated by a reduction in intracellular JC-1 signal.
Kelly cells grown in RPMI medium were washed and resuspended at a concentration of 10^6 cells/ml in solutions containing JC-1 in a final concentration of 50 nmol/l. […] The control contained 1 μl (0.05%) DMSO. Cells were analysed for JC-1 staining in a FACScanto II flow cytometer.

Animal toxicity profile = conditions: animals
topoisomerase II α = experiment: Topoisomerase II alpha mRNA expression in U937 cells (PCR); assay type: cell-based; conditions: 24 h
Protocol: as §1, §2

U937 cells = experiment: Cell cycle analysis in multidrug-resistant U937 cells (propidium iodide); assay type: cell-based; conditions: 18 h, 24 h and 48 h, CAP7.1, etoposide 10^−4 mol/l
Protocol: The cells were incubated for 48 h. After 18 h, 24 h and 48 h of incubation, respectively, cell cycle analysis was performed as follows:
Cells were washed once with CellWash, fixed with fridge-cold 70% Ethanol for 30 min at 4° C. and washed three times. RNA was digested with RNAse A (100 μg/ml in PBS) for 10 min at room temperature. Cells were washed once with CellWash and stained with propidium iodide (50 μg/ml in PBS) for 5 min at room temperature in the dark. Cells were analyzed immediately by flow cytometry using a FACScanto II apparatus.

[2] = Time course of apoptosis induction; assay type: cell-based
[3] = test system: tumours that were metastatic and/or that reduced the function of at least one organ; experiment: Phase I/IIa safety/efficacy study in patients with metastatic and/or organ-function-reducing tumours
Protocol: Nine heavily pre-treated patients were recruited to a combined Phase I/IIa safety/efficacy study. The patients had tumours that were metastatic and/or that reduced the function of at least one organ.
In all patients, the tumours were clinically assessed and the history of their disease was recorded. Tumour markers were determined.
A cycle of treatment consisted of CAP7.1 administration by infusion on 5 consecutive days, followed by an intermittent period of 16 days in which no CAP7.1 was administered. […] The first cohort (patients 1-3, 8 cycles in total) received CAP7.1 at a daily dose of 45 mg/m^2, the second cohort (patients 4-6, 9 cycles in total) at a daily dose of 90 mg/m^2 and the third cohort (patients 7-9) at a daily dose of 150 mg/m^2.

[4] = Combination therapy with carboplatin in children with advanced neuroblastoma; assay type: in vivo, human; conditions: human; plasma, one of the children treated
Protocol: (§3) CAP7.1 was administered with carboplatin to three children with heavily pre-treated advanced neuroblastoma.
(§4) Cycles were repeated every 21 days and a total of 4 cycles were administered in each patient. Toxicity was mainly haematological, grade 1-2 at 200 mg/m^2 and increased to grade 3-4 in the rest of the cycles, but cycle delay due to toxicity was not necessary.

advanced neuroblastoma = experiment: as above; assay type: in vivo, human
Protocol: as §3, §4

Half life in humans = conditions: human, in vivo
HT-29 cells = experiment: Cytotoxicity on HT-29 cells (XTT); assay type: cell-based; conditions: cell viability (XTT)
Protocol: HT-29 cells, which are not multidrug-resistant, were grown in DMEM, 10% foetal calf serum, 2 mM glutamine and […] Pen/Strep medium and then washed.
Cells were harvested, counted, and inoculated at the appropriate concentration of 10^4 cells/well (100 μl volume) into 96-well microtiter plates. After 24 h, the drugs were applied to triplicate culture wells, and cultures were incubated for given times at 37° C. XTT was prepared at 1 mg/ml in pre-warmed (37° C.) medium (RPMI 1640) without serum. PMS was prepared at 5 mmol/l (1.53 mg/ml) in PBS. Fresh XTT and PMS were mixed together at appropriate concentrations. For a 25 μmol/l XTT-PMS solution, 25 μl of the 5 mmol/l PMS solution were added per 5 ml of XTT (1 mg/ml). 50 μl of this mixture were added to each well on given time points after cell inoculation. After incubation at 37° C., the plates were mixed on a mechanical plate shaker, and absorbance was measured with an ELISA Reader to determine cell viability.

[5] = mouse, in vivo
CES1 = biological target: T2, CES1 (Homo sapiens, UniProt P23141); experiment: Conversion of CAP7.1 to etoposide by CES1 (HPLC); assay type: in vitro ADME; conditions: 5 μM CAP7.1, sodium phosphate pH 7.4, 37° C.
T2 sequence (P23141 18-567): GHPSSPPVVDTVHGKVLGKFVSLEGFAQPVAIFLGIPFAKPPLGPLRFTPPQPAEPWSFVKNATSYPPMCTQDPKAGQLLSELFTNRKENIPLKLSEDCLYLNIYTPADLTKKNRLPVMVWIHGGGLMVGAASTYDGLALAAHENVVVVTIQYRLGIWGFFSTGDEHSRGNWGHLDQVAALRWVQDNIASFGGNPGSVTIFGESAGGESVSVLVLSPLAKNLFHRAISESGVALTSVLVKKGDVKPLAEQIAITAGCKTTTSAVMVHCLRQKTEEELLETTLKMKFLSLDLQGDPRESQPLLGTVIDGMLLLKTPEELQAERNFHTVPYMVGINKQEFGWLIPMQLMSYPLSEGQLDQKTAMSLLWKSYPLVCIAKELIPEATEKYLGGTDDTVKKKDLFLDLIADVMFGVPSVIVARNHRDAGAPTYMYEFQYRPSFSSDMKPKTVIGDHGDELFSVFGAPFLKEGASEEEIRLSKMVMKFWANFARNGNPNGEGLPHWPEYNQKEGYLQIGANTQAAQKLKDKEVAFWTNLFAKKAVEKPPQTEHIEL
Protocol: (§5) 5 μM CAP7.1 was pre-incubated for 3 min in 999 μl 0.1 mol/l) sodium phosphate (NaH2PO4, Roth, Karlsruhe, Germany) pH 7.4 at 37° C. After that, CES1, CES2 and CES3, respectively, were added. Controls were incubated with 10% foetal calf serum (FCS, positive control) or in buffer (negative control). At different time points, aliquots were subjected to HPLC in order to analyse the formed products.

[6] = Cardiovascular telemetry study; assay type: in vivo, cynomolgus monkeys; conditions: conscious monkeys, single intravenous 30-minute infusion
Excerpt: The objective of this study was to evaluate the potential modifications of cardiovascular function and cardiac electrophysiology by CAP7.1. The intravenous route was selected, as it is the intended mode of administration in human therapeutic use.
A total of four cynomolgus monkeys (two males and two females) were implanted with telemetric devices and allocated to a single group. They received a single dose of the vehicle (Cremophor/ethanol/NaCl) or CAP7.1, by intravenous 30-minute infusion. Cardiovascular parameters were monitored up to 24 hours following single infusion. The cardiovascular parameters evaluated in this study included heart rate, diastolic, systolic and mean arterial pressure, and duration of the PQ, QRS and QT intervals.

NSX2 tumour xenografts = experiment: NSX2 tumour xenograft model; assay type: in vivo; conditions: mice bearing NSX2 tumour xenografts (MDR-mediated etoposide-resistant)
Excerpt: The lack of cross-resistance to CAP7.1 of MDR-mediated etoposide-resistant cell lines in vitro was confirmed in vivo in mice bearing NSX2 tumour xenografts.

tumour cells = conditions: cited from earlier work
CES3 = biological target: T3, CES3 (Homo sapiens, UniProt Q6UWW8); experiment: Conversion of CAP7.1 to etoposide by CES3 (HPLC); assay type: in vitro ADME; conditions: 5 μM CAP7.1, sodium phosphate pH 7.4, 37° C.
T3 sequence (Q6UWW8 27-571): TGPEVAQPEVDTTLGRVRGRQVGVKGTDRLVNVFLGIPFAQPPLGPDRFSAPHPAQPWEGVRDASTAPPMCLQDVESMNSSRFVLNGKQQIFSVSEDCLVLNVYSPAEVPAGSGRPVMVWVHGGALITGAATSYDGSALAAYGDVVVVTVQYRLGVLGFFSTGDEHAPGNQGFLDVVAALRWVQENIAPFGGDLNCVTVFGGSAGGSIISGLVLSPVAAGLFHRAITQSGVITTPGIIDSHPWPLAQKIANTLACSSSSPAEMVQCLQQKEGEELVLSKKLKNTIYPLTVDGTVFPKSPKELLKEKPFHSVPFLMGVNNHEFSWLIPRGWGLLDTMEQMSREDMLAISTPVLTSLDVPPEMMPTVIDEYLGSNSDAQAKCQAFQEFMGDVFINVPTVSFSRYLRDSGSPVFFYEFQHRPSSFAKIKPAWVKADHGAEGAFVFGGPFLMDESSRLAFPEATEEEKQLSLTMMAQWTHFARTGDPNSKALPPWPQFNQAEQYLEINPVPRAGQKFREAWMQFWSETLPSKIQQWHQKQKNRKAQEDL
Protocol: as §5

[7] = Side effects in preclinical and clinical studies; assay type: in vivo
CES2 = biological target: T4, CES2 (Homo sapiens, UniProt O00748); experiment: Conversion of CAP7.1 to etoposide by CES2 (HPLC); assay type: in vitro ADME; conditions: 5 μM CAP7.1, sodium phosphate pH 7.4, 37° C.
T4 sequence (O00748 27-559): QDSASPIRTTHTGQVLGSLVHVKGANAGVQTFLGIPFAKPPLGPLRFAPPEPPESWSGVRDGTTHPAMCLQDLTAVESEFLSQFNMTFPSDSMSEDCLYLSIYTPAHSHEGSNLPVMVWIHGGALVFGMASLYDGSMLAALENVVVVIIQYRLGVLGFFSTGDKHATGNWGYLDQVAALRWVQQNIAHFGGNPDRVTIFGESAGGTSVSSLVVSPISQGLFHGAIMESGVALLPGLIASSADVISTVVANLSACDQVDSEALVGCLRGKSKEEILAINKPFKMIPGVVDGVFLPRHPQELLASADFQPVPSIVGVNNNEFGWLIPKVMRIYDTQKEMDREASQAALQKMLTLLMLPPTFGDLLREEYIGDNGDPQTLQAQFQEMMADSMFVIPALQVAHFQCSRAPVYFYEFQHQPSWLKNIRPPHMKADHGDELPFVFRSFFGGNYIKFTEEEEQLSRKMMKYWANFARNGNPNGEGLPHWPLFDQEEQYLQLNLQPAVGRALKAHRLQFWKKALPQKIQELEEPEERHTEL
Protocol: as §5

Half life in mice = conditions: mouse, in vivo; mice with high levels of carboxylesterases
[8] = Stability in sodium phosphate buffer (negative control); assay type: physicochemical; conditions: sodium phosphate pH 7.4, 37° C.
Protocol: as §5

Half life in primates = assay type: in vivo

Chain of P-glycoprotein (P08183 whole entry): as the sequence (P08183 whole entry) above

Compound: COc1cc([C@@H]2c3cc4c(cc3[C@@H](O[C@@H]3O[C@@H]5CO[C@@H](C)O[C@H]5[C@H](O)[C@H]3O)[C@H]3COC(=O)[C@H]23)OCO4)cc(OC)c1O [etoposide, reference compound]
- substrate for P-glycoprotein / efflux from cells (P-glycoprotein): pumped out of the cells
- expression of topoisomerase II β (mRNA) (topoisomerase II β): significant decrease
- intracellular JC-1 signal versus DMSO control (MDR-1-mediated substrate efflux) [1]: identical
- effect on the MDR-1 gene product P-glycoprotein ([1]; general statement): ineffective on P-glycoprotein
- weight loss (Animal toxicity profile): significant weight loss
- expression of topoisomerase II α (mRNA) (topoisomerase II α): significant decrease
- fraction of cells in G2 phase with increasing incubation times (U937 cells): reduction

Compound: COc1cc([C@@H]2c3cc4c(cc3C(OC3OC5COC(C)OC5C(O)C3O)C3COC(=O)[C@@H]32)OCO4)cc(OC)c1OC(=O)OCC(O)CO (some centres unmarked) [CAP7.1]
- time after which apoptosis is complete [2]: 120 h
- tolerability of the therapy ([3]; all nine patients, 45, 90 or 150 mg/m^2 daily on 5 consecutive days per cycle): tolerated the therapy well without major adverse reactions
- clinical response after the second cycle of treatment ([3]; patients 1, 3, 4, 6, 8 and 9 of nine): stagnation of the disease
- total dose per cycle tolerated without toxicity ([3]; patients 1 to 6): 450 mg/m^2
- substrate for P-glycoprotein / efflux from cells (P-glycoprotein): not a substrate for P-glycoprotein
- Cmax [4]: 3700 ng/mL
- half-life [4]: 12 to 30 min
- haematological toxicity grade (advanced neuroblastoma; CAP7.1 200 mg/m^2 day 1 with carboplatin 150 mg/m^2 days 2-5): 1-2 grade
- haematological toxicity grade (advanced neuroblastoma; rest of the cycles (CAP7.1 400, 600 and 800 mg/m^2) with carboplatin): 3-4 grade
- tumour response (advanced neuroblastoma; two of the three patients, with carboplatin): evidences of tumour shrinkage
- expression of topoisomerase II β (mRNA) (topoisomerase II β): significant decrease
- half-life (Half life in humans): 15 to 30 min
- IC50 value of CAP7.1 lower than IC50 value of etoposide (HT-29 cells): 10 fold
- LD10 [5]: 360 mg/m^2
- cleavage of CAP7.1 to etoposide by CES1 (CES1): efficiently cleaves
- arrhythmias [6]: No arrhythmias
- modifications in the cardiac electrophysiological parameters ([6]; up to 24 hours): no relevant modifications
- tumour growth compared to control (NSX2 tumour xenografts): clear inhibition of tumour growth
- intracellular JC-1 signal versus DMSO control (MDR-1-mediated substrate efflux) [1]: increased
- potency relative to etoposide, e.g. cytotoxicity on tumour cells (tumour cells): up to 1000 times
- cleavage of CAP7.1 to etoposide by CES3 (CES3): substantially no cleavage
- side effects compared with etoposide [7]: fewer side effects than etoposide
- main toxicity at sublethal dose (Animal toxicity profile): bone marrow suppression affecting predominantly neutrophils and red cells
- weight loss (Animal toxicity profile): do not
- tooth damage (Animal toxicity profile; high dose group): reversible tooth damage
- cleavage of CAP7.1 to etoposide by CES2 (CES2): as efficiently as the positive control FCS
- expression of topoisomerase II α (mRNA) (topoisomerase II α): significant decrease
- half-life (Half life in mice): < 5 min
- stability in buffer (negative control) [8]: stable
- half life compared with mice (Half life in primates): longer
- fraction of cells in G2 phase with increasing incubation times (U937 cells): increase
